From ChEMBL document CHEMBL1201862, “PubChem BioAssay data set” (2004)
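48-hour exposure; five concentrations; linearly interpolated endpoints. GI50 is the concentration that inhibits growth by half.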 The source made the active and inactive calls. No stated cut-off is given here; in the data, active = GI50 up to about 1.1 µM and inactive = higher.

What was measured:
Test in all cases: NCI anticancer screen, dose series, 48 h
786-0 = tested on: 786-0
A498 = tested on: A498
A549 = tested on: A549
ACHN = tested on: ACHN
BT-549 = tested on: BT-549
CAKI-1 = tested on: CAKI-1
CCRF-CEM = tested on: CCRF-CEM
COLO 205 = tested on: COLO 205
DU-145 = tested on: DU-145
EKVX = tested on: EKVX
HCC 2998 = tested on: HCC 2998
HCT-116 = tested on: HCT-116
HCT-15 = tested on: HCT-15
HL-60 = tested on: HL-60
HOP-62 = tested on: HOP-62
HOP-92 = tested on: HOP-92
HT-29 = tested on: HT-29
Hs-578T = tested on: Hs-578T
IGROV-1 = tested on: IGROV-1
K562 = tested on: K562
KM12 = tested on: KM12
LOX IMVI = tested on: LOX IMVI
M14 = tested on: M14
MCF7 = tested on: MCF7
MDA-MB-231 = tested on: MDA-MB-231
MDA-MB-435 = tested on: MDA-MB-435
MDA-N = tested on: MDA-N
MOLT-4 = tested on: MOLT-4
Malme-3M = tested on: Malme-3M
NCI-H226 = tested on: NCI-H226
NCI-H23 = tested on: NCI-H23
NCI-H460 = tested on: NCI-H460
NCI-H522 = tested on: NCI-H522
NCI/ADR-RES = tested on: NCI/ADR-RES
OVCAR-3 = tested on: OVCAR-3
OVCAR-4 = tested on: OVCAR-4
OVCAR-5 = tested on: OVCAR-5
OVCAR-8 = tested on: OVCAR-8
PC-3 = tested on: PC-3
RPMI-8226 = tested on: RPMI-8226
RXF 393 = tested on: RXF 393
SF-268 = tested on: SF-268
SF-295 = tested on: SF-295
SF-539 = tested on: SF-539
SK-MEL-28 = tested on: SK-MEL-28
SK-MEL-2 = tested on: SK-MEL-2
SK-MEL-5 = tested on: SK-MEL-5
SK-OV-3 = tested on: SK-OV-3
SN12C = tested on: SN12C
SNB-19 = tested on: SNB-19
SNB-75 = tested on: SNB-75
SR = tested on: SR
SW-620 = tested on: SW-620
T47D = tested on: T47D
TK-10 = tested on: TK-10
U-251 = tested on: U-251
UACC-257 = tested on: UACC-257
UACC-62 = tested on: UACC-62
UO-31 = tested on: UO-31

O=C1c2ccccc2-c2ccc(N(Cc3ccc(Br)cc3)Cc3ccc(Br)cc3)cc21
GI50 (786-0): > 100 µM (inactive)
GI50 (A498): > 100 µM (inactive)
GI50 (A549): 22.3 µM (inactive)
GI50 (ACHN): > 100 µM (inactive)
GI50 (BT-549): > 100 µM (inactive)
GI50 (CAKI-1): > 100 µM (inactive)
GI50 (CCRF-CEM): 11.1 µM (inactive)
GI50 (COLO 205): > 100 µM (inactive)
GI50 (DU-145): > 100 µM (inactive)
GI50 (EKVX): > 100 µM (inactive)
GI50 (HCC 2998): > 100 µM (inactive)
GI50 (HCT-116): > 100 µM (inactive)
GI50 (HCT-15): > 100 µM
GI50 (HL-60): 20.7 µM (inactive)
GI50 (HOP-62): > 100 µM (inactive)
GI50 (HOP-92): > 100 µM (inactive)
GI50 (HT-29): > 100 µM (inactive)
GI50 (Hs-578T): > 100 µM (inactive)
GI50 (IGROV-1): > 100 µM (inactive)
GI50 (K562): > 100 µM (inactive)
GI50 (KM12): > 100 µM (inactive)
GI50 (LOX IMVI): > 100 µM (inactive)
GI50 (M14): > 100 µM (inactive)
GI50 (MCF7): > 100 µM (inactive)
GI50 (MDA-MB-231): > 100 µM (inactive)
GI50 (MDA-MB-435): > 100 µM (inactive)
GI50 (MDA-N): > 100 µM (inactive)
GI50 (MOLT-4): 36.2 µM (inactive)
GI50 (Malme-3M): > 100 µM (inactive)
GI50 (NCI-H226): > 100 µM (inactive)
GI50 (NCI-H23): > 100 µM (inactive)
GI50 (NCI-H460): 9.82 µM (inactive)
GI50 (NCI-H522): > 100 µM (inactive)
GI50 (NCI/ADR-RES): > 100 µM (inactive)
GI50 (OVCAR-3): > 100 µM (inactive)
GI50 (OVCAR-4): > 100 µM (inactive)
GI50 (OVCAR-5): > 100 µM (inactive)
GI50 (OVCAR-8): > 100 µM (inactive)
GI50 (PC-3): > 100 µM (inactive)
GI50 (RPMI-8226): > 100 µM (inactive)
GI50 (RXF 393): > 100 µM (inactive)
GI50 (SF-268): > 100 µM (inactive)
GI50 (SF-295): > 100 µM (inactive)
GI50 (SF-539): > 100 µM (inactive)
GI50 (SK-MEL-28): > 100 µM (inactive)
GI50 (SK-MEL-2): > 100 µM (inactive)
GI50 (SK-MEL-5): > 100 µM (inactive)
GI50 (SK-OV-3): > 100 µM (inactive)
GI50 (SN12C): > 100 µM (inactive)
GI50 (SNB-19): > 100 µM (inactive)
GI50 (SNB-75): > 100 µM (inactive)
GI50 (SR): 2.44 µM (inactive)
GI50 (SW-620): > 100 µM (inactive)
GI50 (T47D): > 100 µM (inactive)
GI50 (TK-10): > 100 µM (inactive)
GI50 (U-251): > 100 µM (inactive)
GI50 (UACC-257): > 100 µM (inactive)
GI50 (UACC-62): > 100 µM (inactive)
GI50 (UO-31): > 100 µM (inactive)

O=C1N[C@@H]2c3c(Br)sc(Br)c3C(=O)[C@@H]2N1
GI50 (786-0): 2.41 µM (inactive)
GI50 (A498): 17.3 µM (inactive)
GI50 (A549): 12.6 µM (inactive)
GI50 (ACHN): 4.02 µM (inactive)
GI50 (BT-549): 17 µM (inactive)
GI50 (CAKI-1): 3.8 µM (inactive)
GI50 (CCRF-CEM): 0.678 µM (active)
GI50 (COLO 205): 3.78 µM (inactive)
GI50 (DU-145): 5.86 µM (inactive)
GI50 (EKVX): 4.08 µM (inactive)
GI50 (HCC 2998): 1.81 µM (inactive)
GI50 (HCT-116): 1.89 µM (inactive)
GI50 (HCT-15): 3.16 µM
GI50 (HL-60): 2.14 µM (inactive)
GI50 (HOP-62): 6.65 µM (inactive)
GI50 (HOP-92): 5.56 µM (inactive)
GI50 (HT-29): 2.82 µM (inactive)
GI50 (Hs-578T): 8.28 µM (inactive)
GI50 (IGROV-1): 2.26 µM (inactive)
GI50 (K562): 2.1 µM (inactive)
GI50 (KM12): 5.28 µM (inactive)
GI50 (LOX IMVI): 1.93 µM (inactive)
GI50 (M14): 3.82 µM (inactive)
GI50 (MCF7): 2.62 µM (inactive)
GI50 (MDA-MB-231): 4.83 µM (inactive)
GI50 (MDA-MB-435): 2.1 µM (inactive)
GI50 (MDA-N): 2.08 µM (inactive)
GI50 (MOLT-4): 2.76 µM (inactive)
GI50 (Malme-3M): 4.52 µM (inactive)
GI50 (NCI-H226): 29.6 µM (inactive)
GI50 (NCI-H23): 4.43 µM (inactive)
GI50 (NCI-H460): 6.44 µM (inactive)
GI50 (NCI-H522): 5.04 µM (inactive)
GI50 (NCI/ADR-RES): 15.4 µM (inactive)
GI50 (OVCAR-3): 2.59 µM (inactive)
GI50 (OVCAR-4): 3.94 µM (inactive)
GI50 (OVCAR-5): 17.2 µM (inactive)
GI50 (OVCAR-8): 2.9 µM (inactive)
GI50 (PC-3): 3.05 µM (inactive)
GI50 (RPMI-8226): 3.05 µM (inactive)
GI50 (RXF 393): 4.94 µM (inactive)
GI50 (SF-268): 3.33 µM (inactive)
GI50 (SF-295): 15.5 µM (inactive)
GI50 (SF-539): 2.52 µM (inactive)
GI50 (SK-MEL-28): 3.78 µM (inactive)
GI50 (SK-MEL-2): 4.82 µM (inactive)
GI50 (SK-MEL-5): 9.29 µM (inactive)
GI50 (SK-OV-3): 14.1 µM (inactive)
GI50 (SN12C): 4.22 µM (inactive)
GI50 (SNB-19): 11.3 µM (inactive)
GI50 (SNB-75): 7.73 µM (inactive)
GI50 (SR): 1.74 µM (inactive)
GI50 (SW-620): 1.77 µM (inactive)
GI50 (T47D): 5.64 µM (inactive)
GI50 (TK-10): 2.24 µM (inactive)
GI50 (U-251): 2.53 µM (inactive)
GI50 (UACC-257): 3.3 µM (inactive)
GI50 (UACC-62): 4.73 µM (inactive)
GI50 (UO-31): 3.53 µM (inactive)
